Assay results taken from US7495013B2, “Chemical compounds” (AstraZeneca AB, priority 2004, dated 2009).
Where a name gives a salt, the structure may show the parent alone.

Target: T1, human H1 receptor (Homo sapiens, UniProt P35367)
T1 construct: purchased Euroscreen SA, Brussels, Belgium ES-390-M; host or cells: CHO-K1
Assay: Histamine H1 receptor binding, competition displacement of [3H]-pyrilamine
Conditions: competition displacement of 1 nM [3H]-pyrlamine; 2 μg membranes from recombinant CHO-K1 cells expressing the human H1 receptor; 1 hour at room temperature; read-out: H1 pKi (converted)

T1 sequence (P35367 whole entry): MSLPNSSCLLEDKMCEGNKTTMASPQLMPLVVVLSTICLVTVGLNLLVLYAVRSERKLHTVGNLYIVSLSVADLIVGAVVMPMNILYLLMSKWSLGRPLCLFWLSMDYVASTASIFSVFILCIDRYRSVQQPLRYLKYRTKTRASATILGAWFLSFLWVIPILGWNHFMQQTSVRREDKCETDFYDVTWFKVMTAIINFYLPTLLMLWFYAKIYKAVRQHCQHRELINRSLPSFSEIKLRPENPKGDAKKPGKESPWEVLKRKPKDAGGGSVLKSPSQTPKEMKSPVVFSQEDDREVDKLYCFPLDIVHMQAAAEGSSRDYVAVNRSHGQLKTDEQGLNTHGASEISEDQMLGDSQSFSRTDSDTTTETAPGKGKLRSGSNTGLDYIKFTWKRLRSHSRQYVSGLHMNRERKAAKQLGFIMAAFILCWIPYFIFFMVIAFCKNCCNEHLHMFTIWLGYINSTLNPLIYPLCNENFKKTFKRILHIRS

| SMILES | Ki [nM] |
| --- | --- |
| O=C(O)[C@H](CCc1ccccc1)N1CCC(CN2CCC(Oc3ccc(Cl)c(Cl)c3)CC2)CC1 [Example 66, (αS)-4-[[4-(3,4-Dichlorophenoxy)-1-piperidinyl]methyl]-α-(2-phenylethyl)-1-piperidineacetic acid] | 63.1 |
| Cc1c(OC2CCN(CC3CCN([C@@H](Cc4ccccc4C#N)C(=O)O)CC3)CC2)ccc(Cl)c1Cl [Example 56, (αS)-α-[(2-Cyanophenyl)methyl]-4-[[4-(3,4-dichloro-2-methylphenoxy)-1-piperidinyl]methyl]-1-piperidineacetic acid] | 12.6 |
| Cc1c(Cl)ccc(OC2CCN(CC3CCN([C@@H](Cc4ccccc4)C(=O)O)CC3)CC2)c1Cl [Example 37, (αS)4-[[4-(2,4Dichloro-3-methylphenoxy)-1-piperidinyl]methyl]-α-(phenylmethyl)-1-piperidineacetic acid] | 31.6 |
| O=C(O)[C@H](Cc1cccnc1)N1CCC(CN2CCC(Oc3ccc(Cl)c(Cl)c3)CC2)CC1 [Example 42, (αS)-α-[4-[[4-(3,4-Dichlorophenoxy)-1-piperidinyl]methyl]-1-piperidinyl]-3-pyridinepropanoic acid] | 50.1 |
| Cc1c(OC2CCN(CC3CCN([C@@H](Cc4cccc(C#N)c4)C(=O)O)CC3)CC2)ccc(Cl)c1Cl [Example 57, (αS)-α-[(3-Cyanophenyl)methyl]-4-[[4-(3,4-dichloro-2-methylphenoxy)-1-piperidinyl]methyl]-1-piperidineacetic acid] | 20 |
| O=C(O)[C@H]([C@H](O)c1ccccc1)N1CCC(CN2CCC(Oc3ccc(Cl)c(Cl)c3)CC2)CC1 [Example 58, (αS)-4-[[4-(3,4-Dichlorophenoxy)-1-piperidinyl]methyl]-α-[(R)-hydroxyphenylmethyl]-1-piperidineacetic acid] | 126 |
| C[C@@H](c1ccccc1)[C@@H](C(=O)O)N1CCC(CN2CCC(Oc3ccc(Cl)c(Cl)c3)CC2)CC1 [Example 59, (αS)-4-[[4-(3,4-Dichlorophenoxy)-1-piperidinyl]methyl]-α-[(1S)-1-phenylethyl]-1-piperidineacetic acid] | 63.1 |

Continued, values first:

| Ki [nM] | SMILES |
| --- | --- |
| 251 | O=C(O)[C@H](Cc1cccs1)N1CCC(CN2CCC(Oc3ccc(Cl)c(Cl)c3)CC2)CC1 [Example 80, (αS)-4-[[4-(3,4Dichlorophenoxy)-1-piperidinyl]methyl]-α-(2-thienylmethyl)-1-piperidineacetic acid] |
| 398 | Cn1cncc1C[C@@H](C(=O)O)N1CCC(CN2CCC(Oc3ccc(Cl)c(Cl)c3)CC2)CC1 [Example 81, (αS)-4-[[4-(3,4-Dichlorophenoxy)-1-piperidinyl]methyl]-α-[(1-methyl-1H-imidazol-5-yl)methyl]-1-piperidineacetic acid] |
| 158 | Cc1c(Cl)ccc(OC2CCN(CC3CCN([C@@H](Cc4ccccc4)C(=O)O)CC3)CC2)c1Cl [Example 71, (αS)-4-[[4-(2,4-Dichloro-3-methylphenoxy-1-piperidinyl]methyl]-α-(phenylmethyl)-1-piperidineacetic acid, dihydrochloride salt] |
| 126 | O=C(O)[C@H](CCc1ccccc1)N1CCC(CN2CCC(Oc3ccc(Cl)c(Cl)c3)CC2)CC1 [Example 78, (αS)-4-[[4-(3,4-Dichlorophenoxy)-1-piperidinyl]methyl]-α-(2-phenylethyl)-1-piperidineacetic acid dihydrochloride] |
